Source: patent US6800649B1, “Method for inhibiting c-jun expression using JAK-3 inhibitors” (Parker Hughes Institute, priority 1998, dated 2004)

What was measured:
JAK-3 = target: T1, JAK-3 (Homo sapiens, UniProt P52333); experiment: Immune complex hot kinase assay of JAK-3 immunoprecipitated from baculovirus-infected Sf21 cells; assay type: biochemical; settings: 10 μg/ml, 1 hour exposure of immune complexes before kinase assay
T1 construct: made in house; host or cells: Sf21 insect cells (baculovirus)
T1 sequence (P52333 1-1124): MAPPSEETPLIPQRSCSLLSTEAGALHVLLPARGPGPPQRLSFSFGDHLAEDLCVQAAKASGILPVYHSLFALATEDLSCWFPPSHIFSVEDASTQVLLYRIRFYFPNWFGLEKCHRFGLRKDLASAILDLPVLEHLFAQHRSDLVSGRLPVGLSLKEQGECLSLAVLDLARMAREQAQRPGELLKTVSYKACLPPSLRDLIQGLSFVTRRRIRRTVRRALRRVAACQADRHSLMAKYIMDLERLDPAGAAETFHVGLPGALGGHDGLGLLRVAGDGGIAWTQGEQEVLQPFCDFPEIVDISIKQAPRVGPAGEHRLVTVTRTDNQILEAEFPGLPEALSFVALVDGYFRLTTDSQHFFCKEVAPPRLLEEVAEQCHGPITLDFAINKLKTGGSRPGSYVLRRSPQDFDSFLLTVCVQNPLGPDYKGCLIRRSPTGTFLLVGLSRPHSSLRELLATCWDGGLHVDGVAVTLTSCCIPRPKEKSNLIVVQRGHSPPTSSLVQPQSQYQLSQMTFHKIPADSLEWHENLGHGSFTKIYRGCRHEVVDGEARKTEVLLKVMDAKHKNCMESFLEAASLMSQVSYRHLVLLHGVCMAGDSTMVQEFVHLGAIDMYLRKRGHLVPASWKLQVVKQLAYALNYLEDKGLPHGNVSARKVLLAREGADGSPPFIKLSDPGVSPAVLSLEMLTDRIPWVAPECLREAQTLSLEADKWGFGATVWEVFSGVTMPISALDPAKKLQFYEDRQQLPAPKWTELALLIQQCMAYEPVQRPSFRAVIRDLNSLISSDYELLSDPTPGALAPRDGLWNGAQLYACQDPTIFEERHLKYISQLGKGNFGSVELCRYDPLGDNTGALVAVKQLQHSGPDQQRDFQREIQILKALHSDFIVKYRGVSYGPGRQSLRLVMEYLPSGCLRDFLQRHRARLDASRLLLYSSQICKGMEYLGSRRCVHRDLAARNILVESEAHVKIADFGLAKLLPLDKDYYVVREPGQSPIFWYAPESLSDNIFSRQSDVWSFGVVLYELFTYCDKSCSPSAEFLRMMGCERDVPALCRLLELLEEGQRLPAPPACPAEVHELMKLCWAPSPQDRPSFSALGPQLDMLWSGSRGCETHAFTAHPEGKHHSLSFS
Procedure: (§1) FIGS. 4B1-B4. JAK-3 Inhibitors. [A]. Structures of JAK-3 inhibitors. [B] Specificity of JAK-3 inhibitors. Sf21 cells infected with baculovirus expression vectors for JAK-1 JAK-2 or JAK-3 were subjected to immunoprecipitation with anti-JAK antibodies. JAK-1 (shown in B.1), JAK-2 (shown in B.2) and JAK-3 (shown in B.3 and B.4 which illustrate results from 2 independent experiments) immune complexes were treated with 1% DMSO (vehicle control=CON), Compound 1, or Compound 2 for 1 hour prior to hot kinase assays, as described (20,22). […] EMSAs of […]-IL-2Rβ cells. Compound 1(100 (g/ml) and Compound 2 (100 (g/ml) inhibited IL-2 triggered JAK-3-dependent STAT activation but not IL-3-triggered JAK-1/JAK-2-dependent STAT activation in 32Dc11-IL-2Rβ cells.
(§2) After establishing that LYN, BTK, and SYK kinases are not required for radiation-induced c-jun activation, we set out to determine if c-jun activation is functionally linked to the JAK-STAT pathway. To this end, we examined the effects of a JAK-3 inhibitory novel quinazoline derivative on c-jun expression levels in irradiated DT-40 cells. To identify a potent JAK-3 specific inhibitor, the effects of two novel quinazoline derivatives on the enzymatic activity of JAK-1, JAK-2, and JAK-3 were examined using Sf21 cells that were infected with baculovirus expression vectors for these kinases, using standard methods (FIG. 4). […]

JAK-2 = target: T2, JAK-2 (Homo sapiens, UniProt O60674); experiment: Immune complex hot kinase assay of JAK-2 immunoprecipitated from baculovirus-infected Sf21 cells; assay type: biochemical; settings: even at 75 μg/ml, 1 hour exposure of immune complexes before kinase assay
T2 construct: made in house; host or cells: Sf21 insect cells (baculovirus)
T2 sequence (O60674 whole entry, species assumed): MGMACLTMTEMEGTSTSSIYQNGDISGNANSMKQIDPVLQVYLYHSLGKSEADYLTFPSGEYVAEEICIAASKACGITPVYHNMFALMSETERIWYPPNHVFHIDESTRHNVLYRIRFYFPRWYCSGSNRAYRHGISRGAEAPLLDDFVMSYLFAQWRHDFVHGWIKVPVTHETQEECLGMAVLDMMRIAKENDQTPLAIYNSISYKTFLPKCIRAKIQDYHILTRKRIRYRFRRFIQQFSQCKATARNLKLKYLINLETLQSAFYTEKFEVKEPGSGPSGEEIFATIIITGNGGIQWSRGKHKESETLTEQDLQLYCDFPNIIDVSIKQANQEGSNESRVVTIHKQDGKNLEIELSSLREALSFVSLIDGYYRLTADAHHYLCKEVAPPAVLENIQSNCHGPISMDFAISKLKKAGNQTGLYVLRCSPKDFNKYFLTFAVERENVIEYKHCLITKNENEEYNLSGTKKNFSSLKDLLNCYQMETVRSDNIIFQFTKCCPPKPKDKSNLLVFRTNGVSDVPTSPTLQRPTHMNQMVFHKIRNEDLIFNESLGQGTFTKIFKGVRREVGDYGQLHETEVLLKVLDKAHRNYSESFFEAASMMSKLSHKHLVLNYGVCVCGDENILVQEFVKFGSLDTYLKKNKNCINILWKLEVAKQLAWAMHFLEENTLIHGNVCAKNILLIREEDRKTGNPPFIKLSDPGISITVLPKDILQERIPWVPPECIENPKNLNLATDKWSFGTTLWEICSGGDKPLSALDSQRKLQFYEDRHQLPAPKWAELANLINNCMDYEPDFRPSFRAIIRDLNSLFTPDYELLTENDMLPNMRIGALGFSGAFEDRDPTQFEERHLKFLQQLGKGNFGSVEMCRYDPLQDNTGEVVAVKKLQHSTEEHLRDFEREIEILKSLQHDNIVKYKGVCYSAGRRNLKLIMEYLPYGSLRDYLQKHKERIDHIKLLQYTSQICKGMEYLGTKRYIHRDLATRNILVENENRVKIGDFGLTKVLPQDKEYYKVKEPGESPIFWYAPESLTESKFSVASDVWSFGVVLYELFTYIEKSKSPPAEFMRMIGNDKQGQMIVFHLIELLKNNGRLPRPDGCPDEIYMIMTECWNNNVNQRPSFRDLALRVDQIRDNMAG
Procedure: as §1, §2

JAK-1 = target: T3, JAK-1 (Homo sapiens, UniProt P23458); experiment: Immune complex hot kinase assay of JAK-1 immunoprecipitated from baculovirus-infected Sf21 cells; assay type: biochemical; settings: even at 75 μg/ml, 1 hour exposure of immune complexes before kinase assay
T3 construct: made in house; host or cells: Sf21 insect cells (baculovirus)
T3 sequence (P23458 whole entry, species assumed): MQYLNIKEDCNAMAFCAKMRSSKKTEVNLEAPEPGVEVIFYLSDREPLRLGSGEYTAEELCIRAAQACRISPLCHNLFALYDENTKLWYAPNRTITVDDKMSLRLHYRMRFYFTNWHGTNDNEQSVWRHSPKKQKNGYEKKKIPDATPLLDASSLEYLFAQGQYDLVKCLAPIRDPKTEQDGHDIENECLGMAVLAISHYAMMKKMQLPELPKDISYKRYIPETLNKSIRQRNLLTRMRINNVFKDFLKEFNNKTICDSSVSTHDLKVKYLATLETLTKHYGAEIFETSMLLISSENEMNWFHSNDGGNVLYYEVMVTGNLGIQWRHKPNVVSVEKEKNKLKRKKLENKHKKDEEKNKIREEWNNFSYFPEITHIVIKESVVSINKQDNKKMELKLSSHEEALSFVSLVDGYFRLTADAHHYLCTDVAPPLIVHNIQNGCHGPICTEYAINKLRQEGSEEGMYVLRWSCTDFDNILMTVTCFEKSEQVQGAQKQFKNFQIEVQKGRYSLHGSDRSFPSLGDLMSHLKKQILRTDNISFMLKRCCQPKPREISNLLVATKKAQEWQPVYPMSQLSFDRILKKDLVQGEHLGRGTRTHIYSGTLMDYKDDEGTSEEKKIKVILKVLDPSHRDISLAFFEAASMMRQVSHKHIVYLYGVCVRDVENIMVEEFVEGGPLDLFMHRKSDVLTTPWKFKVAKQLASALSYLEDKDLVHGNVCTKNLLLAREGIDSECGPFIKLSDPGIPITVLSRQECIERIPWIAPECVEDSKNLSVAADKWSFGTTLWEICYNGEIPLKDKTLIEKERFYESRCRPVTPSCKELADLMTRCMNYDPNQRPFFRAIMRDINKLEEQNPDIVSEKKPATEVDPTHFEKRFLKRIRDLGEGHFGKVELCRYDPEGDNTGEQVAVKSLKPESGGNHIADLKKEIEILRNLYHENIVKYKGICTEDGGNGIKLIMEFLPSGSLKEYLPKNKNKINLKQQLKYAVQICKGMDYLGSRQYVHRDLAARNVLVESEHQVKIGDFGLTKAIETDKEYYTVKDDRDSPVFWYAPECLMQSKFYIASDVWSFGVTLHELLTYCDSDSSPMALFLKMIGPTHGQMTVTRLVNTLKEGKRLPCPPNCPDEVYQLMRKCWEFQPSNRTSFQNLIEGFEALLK
Procedure: as §1, §2

[1] = test system: IL-2 triggered JAK-3-dependent STAT activation; experiment: EMSA of IL-2 triggered STAT activation in 32Dc11-IL-2Rβ cells; assay type: cell-based; settings: 100 (g/ml, EMSA (FIG. 4C legend))
Procedure: as §1
Electrophoretic Mobility Shift Assays (EMSAs) were performed to examine the effects of both compounds on cytokine-induced STAT activation. Specifically, 32Dc11/IL2Rβ cells (gift from James Ihle, St. Jude Children's Research Hospital) were exposed at 8×10^6/ml in RPMI supplemented with FBS to the JAK-3 inhibitors at a final concentration of 10 μg/ml in 1% DMSO) for 1 hour and subsequently stimulated with IL2 or IL3 as indicated. […]

[2] = test system: c-jun expression in DT-40 chicken lymphoma B-cells; experiment: Radiation-induced c-jun mRNA expression by Northern blot; assay type: cell-based; design: unit of the concentration uncertain; settings: DT-40 cells
Procedure: FIGS. 1A and 1B. Radiation-induced c-jun activation in wild-type DT-40 lymphoma B-cells. [A]. Dose reponse for induction of c-jun mRNA. DT-40 chicken cells were irradiated at the indicated doses (0, 10, 15, 20 Gy). Total RNA was extracted after a 2 hours or 4 hours post-irradiation time period. RNA ([…]) was loaded on a Northern gel and transferred by capillary blotting to a nylon membrane. The Northern blot was hybridized with a ^32P labeled chicken c-jun probe (top panel) or a chicken GAPDH probe (bottom panel). […] Effect of the PTK inhibitor genistein on induction of c-jun mRNA. Cells were treated with […] of genistein for 24 hours at 37° C. prior to exposure to 20 Gy ionizing radiation. c-jun expression levels were determined as in [A].
FIG. 5. Effects of a JAK-3 inhibitor on c-jun induction in irradiated DT-40 cells. Cells were treated with the quinazoline derivative 4(3′-Bromo-4′-hydroxyl-phenyl)-amino-6,7-dimethoxyquinazoline ([…]) for 24 hours at 37° C. prior to exposure to 20 Gy ionizing radiation. c-jun expression levels were determined as outlined in FIGS. 1-3. […]
A 506 basepair (bp) c-jun probe was obtained by polymerase chain reaction (PCR) amplification of chicken genomic DNA. Primer sequences were determined based upon the sequence of chicken c-jun (GenBank accession code CHKJUN). […]

SMILES | inhibition of JAK-3 enzymatic activity (JAK-3) | inhibition of JAK-2 enzymatic activity (JAK-2) | inhibition of JAK-1 enzymatic activity (JAK-1) | inhibition of IL-2 triggered JAK-3-dependent STAT activation [1] | induction of c-jun expression by ionizing radiation in treated cells ([2]; 100 (unit uncertain) for 24 hours at 37° C. before 20 Gy ionizing radiation) | stimulation index (c-jun/GAPDH ratio, irradiated versus non-irradiated cells) ([2]; 30 (unit uncertain) for 24 hours at 37° C. before 20 Gy ionizing radiation)
COc1cc2ncnc(Nc3ccc(O)cc3)c2cc1OC [Compound 1, 4-(4′-Hydroxylphenyl)-amino-6,7-dimethoxy-quinazoline] | inhibited | did not inhibit | did not inhibit | inhibited |  | 
COc1cc2ncnc(Nc3ccc(O)c(Br)c3)c2cc1OC [Compound 2, 4-(3′-Bromo-4′-hydroxylphenyl)-amino-6,7-dimethoxy-quinazoline] | inhibited | did not inhibit | did not inhibit | inhibited | failed to induce c-jun expression | 
O=c1c(-c2ccc(O)cc2)coc2cc(O)cc(O)c12 [genistein, reference compound] |  |  |  |  |  | 1.1
